Results on 2 compounds are retold here after ChEMBL document CHEMBL1157088, “Gukulenins A and B, cytotoxic tetraterpenoids from the marine sponge Phorbas gukulensis” (J Nat Prod, 2010).

Molecules are shown by their SMILES.

Type in all cases: functional, cell-based
One assay deals with FaDu. Briefly: Cytotoxicity against human FADU cells after 24 hrs by MTT assay.
For the next assay, the system named is HCT-116. Briefly: Cytotoxicity against human HCT116 cells after 24 hrs by MTT assay. The settings on record: HCT-116, 24 h. (Tetrazolium dyes change colour on reduction, which living cells bring about.)
In a further assay the test system is SN12C. Briefly: Cytotoxicity against human SN12C cells after 24 hrs by MTT assay.
The next assay concerns MKN-45. Briefly: Cytotoxicity against human MKN45 cells after 24 hrs by MTT assay. The settings on record: MKN-45, 24 h.

As for `CC(=O)O[C@@H](C=O)[C@]1(C)CC[C@H](C(C)C)[C@@H]1c1cc([C@]2(O)Cc3cc(O)c(=O)c(C)c4c3[C@@H](O2)[C@H](O)[C@]2(C)CC[C@H](C(C)C)[C@H]42)cc(O)c(=O)c1C` [GUKULENIN A], the IC50 in the assay on FaDu stood at 57 nM; with HCT-116 it was 62 nM; with SN12C, 92 nM; in the assay on MKN-45, 130 nM.

On to `CC(=O)O[C@@H](CO)[C@]1(C)CC[C@H](C(C)C)[C@@H]1c1cc([C@]2(O)Cc3cc(O)c(=O)c(C)c4c3[C@@H](O2)[C@H](O)[C@]2(C)CC[C@H](C(C)C)[C@H]42)cc(O)c(=O)c1C` [GUKULENIN B], for which the IC50 in the assay with FaDu turned out to be 630 nM; in the assay on HCT-116, 550 nM; in the assay with SN12C, 610 nM; with MKN-45, 720 nM.

As usually defined, the IC50 is the concentration that gives 50% inhibition.
